Reference: patent US8624034B2, “Fluoro-pyridinone derivatives useful as antibacterial agents” (Pfizer Inc., priority 2011, dated 2014)
In brackets after ≈: the same amount, converted by molar mass.

How the values were obtained:
[1] = test system: Pseudomonas aeruginosa UI-18: wild-type (PA-7); experiment: MIC determination, PA-7; format: cell-based; details: Table 2, lower of duplicate values
Procedure: The in vitro antibacterial activity of compounds described in the Examples was evaluated by minimum inhibitory concentration (MIC) testing according to Clinical and Laboratory Standards Institute (CLSI). See: Clinical and Laboratory Standards Institute. Methods for Dilution Antimicrobial Susceptibility Tests for Bacteria that Grow Aerobically; Approved Standard-Eighth Edition. CLSI document M7-A8 [ISBN 1-56238-689-1]. Clinical and Laboratory Standards Institute, 940 West Valley Road, Suite 1400, Wayne, Pa. 19087-1898 USA, 2006; also Clinical and Laboratory Standards Institute. Performance Standards for Antimicrobial Susceptibility Testing; Twentieth Informational Supplement. CLSI document M100-S20 [ISBN 1-56238-716-2]. Clinical and Laboratory Standards Institute.
The MIC determination is a standard laboratory method for evaluating the antibacterial activity of a compound. The MIC represents the lowest drug concentration that inhibits visible growth of bacteria following overnight incubation. […] Typically, the drug concentration range is broken down into 2-fold increments (e.g. 0.06 μg/mL, 0.12 μg/mL. 0.25 μg/mL, 0.50 μg/mL, 1.0 μg/mL, etc.) and the various drug concentrations are all individually incubated overnight with approximately the same number of bacteria. The MIC is then determined by visually inspecting the drug effect at each concentration, and identifying the lowest drug concentration that has inhibited bacterial growth as compared to the drug free control. Typically, bacteria continue to grow at drug concentrations lower than the MIC and don't grow at concentrations at and above the MIC.
The MIC values described in Table 2 and 3 below were derived from assays wherein each test compound was evaluated in duplicate. In cases where the duplicate values varied by 0-2-fold, the lower of the two values was reported below. Generally speaking, if the duplicate values varied by more than 2-fold, the assay was considered non-valid and was repeated until the variation between duplicate runs was ≦2-fold. In line with the CLSI guidelines referred to above, both control organisms and reference compounds were utilized in each MIC assay to provide proper quality control. MIC values generated with these control organisms and reference compounds were required to fall within a defined range for the assay to be considered valid and be included herein. Those skilled in the art will recognize that MIC values can and do vary from experiment to experiment. Generally speaking, it should be recognized that MIC values often vary +/−2-fold from experiment to experiment. While a single MIC is reported for each compound and each microorganism, the reader should not conclude that each compound was only tested once. Several of the compounds were subjected to multiple tests. The data reported in Tables 2 and 3 is reflective of the compounds relative activity and different MICs may have been generated on these occasions in line with the guidelines described above.
The following bacterial strains were used in these MIC determinations:
1) Pseudomonas aeruginosa UI-18: Wild-type, labeled as PA-7 in Tables 2 and 3;

[2] = target: T1, Pseudomonas aeruginosa LpxC enzyme (Pseudomonas aeruginosa, UniProt P47205); experiment: IC50 assay, LpxC enzyme from P. aeruginosa (PA LpxC enzyme IC50); format: biochemical; details: Table 2; LpxC enzyme 0.1 nM, 25° C., 1 hour; read-out: PA:IC50
T1 construct: made in house; host or cells: E. coli
T1 sequence (P47205 1-303): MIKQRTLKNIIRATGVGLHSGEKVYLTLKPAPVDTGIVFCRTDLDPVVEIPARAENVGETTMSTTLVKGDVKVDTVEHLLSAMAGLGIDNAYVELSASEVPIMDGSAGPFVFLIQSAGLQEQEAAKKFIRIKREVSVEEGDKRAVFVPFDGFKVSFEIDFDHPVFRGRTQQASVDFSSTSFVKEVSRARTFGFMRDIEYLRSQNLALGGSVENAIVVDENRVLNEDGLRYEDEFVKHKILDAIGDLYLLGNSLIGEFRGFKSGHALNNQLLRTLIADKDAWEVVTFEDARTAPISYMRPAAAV
Summary of the method: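 The LpxC reaction ran 1 hour and was stopped with HCl. Substrate-to-product conversion was measured by RapidFire mass spectrometry, and IC50 values were calculated from percent conversion relative to a no-enzyme control.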

[3] = test system: Escherichia coli EC-1: VOGEL, mouse virulent; experiment: MIC determination, EC-1; format: cell-based; details: Escherichia coli, read-out: EC-1 (MIC), Table 2, lower of duplicate values
Summary of the method: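 MIC against mouse-virulent E. coli EC-1 (VOGEL) was determined by CLSI M7-A8 broth dilution with 2-fold drug increments and overnight incubation. The MIC is the lowest concentration with no visible growth versus drug-free control. Tests were run in duplicate and the lower value reported if within 2-fold, with QC organisms and reference drugs in each run.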

[4] = test system: Acinetobacter baumannii/haemolyticus, multidrug-resistant clinical isolate (AB-3167); experiment: MIC determination, AB-3167; format: cell-based; details: Table 2, lower of duplicate values
Summary of the method: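 Broth dilution MIC per CLSI M7-A8, 2-fold drug series, overnight incubation, lowest concentration visibly inhibiting growth against drug-free control. Run in duplicate, lower value reported; duplicates differing >2-fold repeated; QC strains and reference compounds required in range.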

SMILES	MIC [1]	IC50 [2]	MIC [3]	MIC [4]
C[C@@](CCn1cc(F)c(-c2ccc(-n3ncnn3)cc2)cc1=O)(C(=O)NO)S(C)(=O)=O [Example 1, (2R)-4-{5-fluoro-2-oxo-4-[4-(2H-tetrazol-2-yl)phenyl]pyridin-1(2H)-yl}-N-hydroxy-2-methyl-2-(methylsulfonyl)butanamide]	32 µg/mL (≈ 71 µM)	1.49 nM	> 64 µg/mL	> 64 µg/mL
C[C@@](CCn1cc(F)c(-c2ccc3nccnc3c2)cc1=O)(C(=O)NO)S(C)(=O)=O [Example 24, (2R)-4-(5-Fluoro-2-oxo-4-quinoxalin-6-ylpyridin-1(2H)-yl)-N-hydroxy-2-methyl-2-(methylsulfonyl)butanamide]	4 µg/mL (≈ 9.21 µM)	1.23 nM	4 µg/mL (≈ 9.21 µM)	> 64 µg/mL
C[C@@](CCn1cc(F)c(-c2ccccc2F)cc1=O)(C(=O)NO)S(C)(=O)=O [Example 4, (2R)-4-[5-Fluoro-4-(2-fluorophenyl)-2-oxopyridin-1(2H)-yl]-N-hydroxy-2-methyl-2-(methylsulfonyl)butanamide]	0.5 µg/mL (≈ 1.25 µM)	0.717 nM	2 µg/mL (≈ 4.99 µM)	> 64 µg/mL
COc1ccc(-c2cc(=O)n(CC[C@](C)(C(=O)NO)S(C)(=O)=O)cc2F)cc1F [Example 19, (2R)-4-[5-Fluoro-4-(3-fluoro-4-methoxyphenyl)-2-oxopyridin-1(2H)-yl]-N-hydroxy-2-methyl-2-(methylsulfonyl)butanamide]	1 µg/mL (≈ 2.32 µM)	0.879 nM	2 µg/mL (≈ 4.65 µM)	> 64 µg/mL
CCOc1ccc(-c2cc(=O)n(CC[C@](C)(C(=O)NO)S(C)(=O)=O)cc2F)cc1 [Example 10, (2R)-4-[4-(4-Ethoxyphenyl)-5-fluoro-2-oxopyridin-1(2H)-yl]-N-hydroxy-2-methyl-2-(methylsulfonyl)butanamide]	1 µg/mL (≈ 2.34 µM)	0.823 nM	0.25 µg/mL (≈ 0.586 µM)	> 64 µg/mL
C[C@@](CCn1cc(F)c(-c2ccc(Cl)cc2)cc1=O)(C(=O)NO)S(C)(=O)=O [Example 3, (2R)-4-[4-(4-Chlorophenyl)-5-fluoro-2-oxopyridin-1(2H)-yl]-N-hydroxy-2-methyl-2-(methylsulfonyl)butanamide]	0.25 µg/mL (≈ 0.6 µM)	0.325 nM	0.25 µg/mL (≈ 0.6 µM)	64 µg/mL (≈ 154 µM)
C[C@@](CCn1cc(F)c(-c2ccc3c(c2)CCCO3)cc1=O)(C(=O)NO)S(C)(=O)=O [Example 8, (2R)-4-[4-(3,4-Dihydro-2H-chromen-6-yl)-5-fluoro-2-oxopyridin-1(2H)-yl]-N-hydroxy-2-methyl-2-(methylsulfonyl)butanamide]	1 µg/mL (≈ 2.28 µM)	0.377 nM	0.5 µg/mL (≈ 1.14 µM)	> 64 µg/mL
C[C@@](CCn1cc(F)c(-c2ccc(Cl)cc2F)cc1=O)(C(=O)NO)S(C)(=O)=O [Example 16, (2R)-4-[4-(4-Chloro-2-fluorophenyl)-5-fluoro-2-oxopyridin-1(2H)-yl]-N-hydroxy-2-methyl-2-(methylsulfonyl)butanamide]	0.5 µg/mL (≈ 1.15 µM)	0.336 nM	0.25 µg/mL (≈ 0.575 µM)	> 64 µg/mL
C[C@@](CCn1cc(F)c(-c2ccc(-c3ccon3)cc2)cc1=O)(C(=O)NO)S(C)(=O)=O [Example 41, (2R)-4-[5-Fluoro-4-(4-isoxazol-3-ylphenyl)-2-oxopyridin-1(2H)-yl]-N-hydroxy-2-methyl-2-(methylsulfonyl)butanamide]	0.5 µg/mL (≈ 1.11 µM)	0.237 nM	0.5 µg/mL (≈ 1.11 µM)	16 µg/mL (≈ 35.6 µM)
COc1ccc(-c2ccc(-c3cc(=O)n(CC[C@](C)(C(=O)NO)S(C)(=O)=O)cc3F)cc2)cn1 [Example 32, (2R)-4-{5-Fluoro-4-[4-(6-methoxypyridin-3-yl)phenyl]-2-oxopyridin-1(2H)-yl}-N-hydroxy-2-methyl-2-(methylsulfonyl)butanamide]	1 µg/mL (≈ 2.04 µM)	0.4 nM	≤ 0.06 µg/mL	> 64 µg/mL
COc1cnc(-c2ccc(-c3cc(=O)n(CC[C@](C)(C(=O)NO)S(C)(=O)=O)cc3F)cc2)nc1 [Example 21, (2R)-4-{5-Fluoro-4-[4-(5-methoxypyrimidin-2-yl)phenyl]-2-oxopyridin-1(2H)-yl}-N-hydroxy-2-methyl-2-(methylsulfonyl)butanamide]	1 µg/mL (≈ 2.04 µM)	0.436 nM	0.125 µg/mL (≈ 0.255 µM)	> 64 µg/mL
C[C@@](CCn1cc(F)c(-c2ccc3c(c2)CCO3)cc1=O)(C(=O)NO)S(C)(=O)=O [Example 5, (2R)-4-[4-(2,3-Dihydro-1-benzofuran-5-yl)-5-fluoro-2-oxopyridin-1(2H)-yl]-N-hydroxy-2-methyl-2-(methylsulfonyl)butanamide]	1 µg/mL (≈ 2.36 µM)	0.822 nM	1 µg/mL (≈ 2.36 µM)	> 64 µg/mL
Cc1cnn(-c2ccc(-c3cc(=O)n(CC[C@](C)(C(=O)NO)S(C)(=O)=O)cc3F)cc2)n1 [Example 23, (2R)-4-{5-Fluoro-4-[4-(4-methyl-2H-1,2,3-triazol-2-yl)phenyl]-2-oxopyridin-1(2H)-yl}-N-hydroxy-2-methyl-2-(methylsulfonyl)butanamide]	0.5 µg/mL (≈ 1.08 µM)	0.287 nM	0.06 µg/mL (≈ 0.129 µM)	> 64 µg/mL
Cc1ccc(-c2cc(=O)n(CC[C@](C)(C(=O)NO)S(C)(=O)=O)cc2F)cc1 [Example 29, (2R)-4-[5-Fluoro-4-(4-methylphenyl)-2-oxopyridin-1(2H)-yl]-N-hydroxy-2-methyl-2-(methylsulfonyl)butanamide]	0.5 µg/mL (≈ 1.26 µM)	0.514 nM	0.5 µg/mL (≈ 1.26 µM)	> 64 µg/mL
[2H]C([2H])([2H])Oc1ccc(-c2cc(=O)n(CC[C@](C)(C(=O)NO)S(C)(=O)=O)cc2F)cc1 [Example 44, (2R)-4-[5-Fluoro-4-(4-trideuteromethoxyphenyl)-2-oxopyridin-1(2H)-yl]-N-hydroxy-2-methyl-2-(methylsulfonyl)butanamide]	0.25 µg/mL (≈ 0.602 µM)	0.664 nM	0.25 µg/mL (≈ 0.602 µM)	> 64 µg/mL
C[C@@](CCn1cc(F)c(-c2ccc(OCC(F)(F)F)cc2)cc1=O)(C(=O)NO)S(C)(=O)=O [Example 7, (2R)-4-{5-Fluoro-2-oxo-4-[4-(2,2,2-trifluoroethoxy)phenyl]pyridin-1(2H)-yl}-N-hydroxy-2-methyl-2-(methylsulfonyl)butanamide]	1 µg/mL (≈ 2.08 µM)	0.576 nM	0.25 µg/mL (≈ 0.52 µM)	> 64 µg/mL
Cc1cccc(-c2cc(=O)n(CC[C@](C)(C(=O)NO)S(C)(=O)=O)cc2F)c1 [Example 13, (2R)-4-[5-Fluoro-4-(3-methylphenyl)-2-oxopyridin-1(2H)-yl]-N-hydroxy-2-methyl-2-(methylsulfonyl)butanamide]	1 µg/mL (≈ 2.52 µM)	1.05 nM	1 µg/mL (≈ 2.52 µM)	> 64 µg/mL
C[C@@](CCn1cc(F)c(-c2ccc(OC(F)F)cc2)cc1=O)(C(=O)NO)S(C)(=O)=O [Example 33, (2R)-4-{4-[4-(Difluoromethoxy)phenyl]-5-fluoro-2-oxopyridin-1(2H)-yl}-N-hydroxy-2-methyl-2-(methylsulfonyl)butanamide]	0.5 µg/mL (≈ 1.12 µM)	0.0606 nM	0.5 µg/mL (≈ 1.12 µM)	> 64 µg/mL
